Source: US9828350B2, “5,6-dihydro-2H-[1,4]oxazin-3-yl-amine derivatives useful as inhibitors of beta-secretase (BACE)” (Janssen Pharmaceutica NV, priority 2010, dated 2017)

Experiments:
Abeta total = experiment: Cellular αLisa assay in SKNBE2 cells, Abeta total; format: cell-based, human; details: incubated for 18 hours; for IC50: Homo sapiens, SKNBE2, 18 h, read-out: Cellular αLisa assay in SKNBE2 cells Abetatotal pIC50 (converted)
Description: (§1) Cellular αLisa Assay in SKNBE2 Cells
(§2) In two αLisa assays the levels of Abeta total and Abeta 1-42 produced and secreted into the medium of human neuroblastoma SKNBE2 cells are quantified. The assay is based on the human neuroblastoma SKNBE2 expressing the wild type Amyloid Precursor Protein (hAPP695). The compounds are diluted and added to these cells, incubated for 18 hours and then measurements of Abeta 1-42 and Abeta total are taken. Abeta total and Abeta 1-42 are measured by sandwich αLisa. αLisa is a sandwich assay using biotinylated antibody AbN/25 attached to streptavidin coated beads and antibody Ab4G8 or cAb42/26 conjugated acceptor beads for the detection of Abeta total and Abeta 1-42 respectively. In the presence of Abeta total or Abeta 1-42, the beads come into close proximity. The excitation of the donor beads provokes the release of singlet oxygen molecules that trigger a cascade of energy transfer in the acceptor beads, resulting in light emission. Light emission is measured after 1 hour incubation (excitation at […] and emission at 615 nm).

[1] = molecular target: recombinant BACE1 protein (Homo sapiens, UniProt P56817); experiment: Biochemical FRET based assay; details: recombinant BACE1 1 μg/ml, 120 minutes at room temperature, pH 5.0; for IC50: read-out: Biochemical FRET based assay pIC50 (converted)
Text: Biochemical FRET Based Assay
This assay is a Fluorescence Resonance Energy Transfer Assay (FRET) based assay. The substrate for this assay is an APP derived 13 amino acids peptide that contains the ‘Swedish’ Lys-Met/Asn-Leu mutation of the amyloid precursor protein (APP) beta-secretase cleavage site. This substrate also contains two fluorophores: (7-methoxycoumarin-4-yl) acetic acid (Mca) is a fluorescent donor with excitation wavelength at 320 nm and emission at 405 nm and 2,4-Dinitrophenyl (Dnp) is a proprietary quencher acceptor. […] Upon cleavage by BACE1, the fluorophore Mca is separated from the quenching group Dnp, restoring the full fluorescence yield of the donor. The increase in fluorescence is linearly related to the rate of proteolysis.
Briefly in a 384-well format recombinant BACE1 protein in a final concentration of 1 μg/ml is incubated for 120 minutes at room temperature with […] substrate in incubation buffer (40 mM Citrate buffer pH 5.0, 0.04% PEG, 4% DMSO) in the absence or presence of compound. Next the amount of proteolysis is directly measured by fluorescence measurement at T=0 and T=120 (excitation at 320 nm and emission at 405 nm). Results are expressed in RFU (Relative Fluorescence Units), as difference between T120 and TO.

Abeta 1-42 = experiment: Cellular αLisa assay in SKNBE2 cells, Abeta 1-42; format: cell-based, human; details: incubated for 18 hours; for IC50: Homo sapiens, SKNBE2, 18 h, read-out: Cellular αLisa assay in SKNBE2 cells Abeta 42 pIC50 (converted)
Description: as §1, §2

Sequence of recombinant BACE1 protein (P56817 46-501): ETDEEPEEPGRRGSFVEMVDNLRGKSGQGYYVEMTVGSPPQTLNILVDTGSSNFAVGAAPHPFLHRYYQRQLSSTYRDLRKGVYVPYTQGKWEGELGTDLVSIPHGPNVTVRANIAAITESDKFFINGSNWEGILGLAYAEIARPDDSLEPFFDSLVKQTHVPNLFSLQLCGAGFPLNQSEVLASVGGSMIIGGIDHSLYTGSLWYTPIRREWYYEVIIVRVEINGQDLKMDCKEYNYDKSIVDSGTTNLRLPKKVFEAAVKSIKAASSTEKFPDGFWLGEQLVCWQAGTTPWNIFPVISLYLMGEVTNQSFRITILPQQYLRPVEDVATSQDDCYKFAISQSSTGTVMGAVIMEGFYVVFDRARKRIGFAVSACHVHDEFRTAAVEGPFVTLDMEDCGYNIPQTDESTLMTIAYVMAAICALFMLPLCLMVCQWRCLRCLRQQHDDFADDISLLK

SMILES	Cellular αLisa assay in SKNBE2 cells Abetatotal pIC50 (Abeta total)	IC50 [1]	Cellular αLisa assay in SKNBE2 cells Abeta 42 pIC50 (Abeta 1-42)	Biochemical FRET based assay pIC50 [1]	IC50 (Abeta total)	IC50 (Abeta 1-42)
COc1cncc(-c2cc(C3(C)COCC(N)=N3)c(F)cc2F)c1 (racemic) [Compound 66]	7.0		6.92	5.69		
N#Cc1cncc(-c2cccc([C@@]3(C4CC4)N=C(N)CO[C@H]3C(F)(F)F)c2)c1 [Compound 253, (5R,6R)-5-{3-[5-amino-3-cyclopropyl-2-(trifluoromethyl)-3,6-dihydro-2H-1,4-oxazin-3-yl]phenyl}pyridine-3-carbonitrile]		155 nM			50.1 nM	49 nM
CC1(c2cc(NC(=O)c3ccc(Cl)cc3F)ccc2F)COCC(N)=N1.Cl (stereo not drawn) [Compound 27]	7.04		7.06	6.35		
CC1(c2cc(-c3cccc(C(F)(F)F)c3)c(F)cc2F)COCC(N)=N1 (stereo not drawn) [Compound 31]	5.86		5.76	4.76		
CC1(c2cc(NC(=O)c3ccc(C(F)(F)F)cn3)c(F)cc2F)COCC(N)=N1 (racemic) [Compound 13]	6.84		6.83	5.37		
CCC1(c2cc(NC(=O)c3ncc(C#N)cc3Cl)ccc2F)N=C(N)COC1C(F)(F)F (stereo not drawn) [Compound 284]		87.1 nM			17.4 nM	17.8 nM
NC1=N[C@@](c2cc(-c3cncc(Cl)c3)ccc2F)(C2CC2)[C@@H](F)OC1 [Compound 294]		2290 nM			4900 nM	6610 nM
C[C@@]1(c2cc(-c3cncnc3)c(F)cc2F)N=C(N)CO[C@H]1F (racemic) [Compound 83, trans-rac-5-(2,4-difluoro-5-pyrimidin-5-ylphenyl)-6-fluoro-5-methyl-5,6-dihydro-2H-1,4-oxazin-3-amine]	6.29		6.29	6.01		
COc1cncc(-c2cccc(C3(C)N=C(N)COC3C(F)(F)F)c2)c1 (single isomer, unassigned) [Compound 104]	5.82	9330 nM	5.8			
CC1(c2cccc(NC(=O)c3ncc(Cl)cc3F)c2)N=C(N)COC1F (single isomer, unassigned) [Compound 164]	<5	> 30200 nM	<5			
C[C@]1(c2cc(NC(=O)c3ncc(Cl)cc3F)ccc2F)N=C(N)CO[C@H]1C(F)(F)F [Compound 260]		47.9 nM			6.46 nM	6.61 nM
CC1(c2cc(-c3cncc(C#N)c3)ccc2F)N=C(N)COC1C(F)(F)F (stereo not drawn) [Compound 239]		1050 nM			224 nM	224 nM
CC1(c2cc(-c3cncc(Cl)c3)c(F)cc2F)COCC(N)=N1 (stereo not drawn) [Compound 23]	6.85		6.89	5.86		
N#Cc1ccc(C(=O)Nc2cccc([C@@]3(C4CC4)N=C(N)CO[C@H]3F)c2)nc1 [Compound 280]		182 nM			57.5 nM	58.9 nM
C[C@]1(c2cc(-c3cncc(F)c3)c(F)cc2F)N=C(N)CO[C@@H]1C(F)(F)F [Compound 316]		1150 nM			631 nM	724 nM
CC1(c2cc(-c3cncnc3)ccc2F)COCC(N)=N1 (single isomer, unassigned) [Compound 53]	<5		5.28	<4.52		
CC1(c2cc(NC(=O)c3ccc(Cl)s3)ccc2F)COCC(N)=N1 (stereo not drawn) [Compound 29]	6.67		6.67	6.11		

Other lines, results leading:

Cellular αLisa assay in SKNBE2 cells Abetatotal pIC50 (Abeta total)	IC50 [1]	Cellular αLisa assay in SKNBE2 cells Abeta 42 pIC50 (Abeta 1-42)	Biochemical FRET based assay pIC50 [1]	IC50 (Abeta total)	IC50 (Abeta 1-42)	SMILES
8.07	21.9 nM	8.11				CC1(c2cccc(NC(=O)c3ncc(Cl)cc3F)c2)N=C(N)COC1(F)C(F)(F)F (single isomer, unassigned) [Compound 173]
	60.3 nM			39.8 nM	43.7 nM	NC1=N[C@@](c2cccc(NC(=O)c3ncc(Cl)cc3F)c2)(C2CC2)[C@@H](F)OC1 [Compound 250, (2R,3R)—N-[3-(5-amino-3-cyclopropyl-2-fluoro-3,6-dihydro-2H-1,4-oxazin-3-yl)phenyl]-5-chloro-3-fluoropyridine-2-carboxamide]
7.52	35.5 nM	7.54				COc1cnc(C(=O)Nc2cccc(C3(C)N=C(N)COC3F)c2)cn1 (single isomer, unassigned) [Compound 131]
	91.2 nM			316 nM	347 nM	NC1=N[C@@](c2cc(NC(=O)c3cnc(OCC(F)(F)F)cn3)ccc2F)(C2CC2)[C@@H](F)OC1 [Compound 264]
6.69		6.7	6.52			N#Cc1ccc(C(=O)Nc2cccc(C3(C4CC4)N=C(N)COC3(F)C(F)(F)F)c2)nc1 (stereo not drawn) [Compound 198]
	36.3 nM			7.41 nM	6.92 nM	C[C@]1(c2cc(NC(=O)c3ncc(C#N)cc3Cl)ccc2F)N=C(N)CO[C@]1(F)C(F)(F)F [Compound 306]
	20.4 nM			37.2 nM	37.2 nM	COc1cnc(C(=O)Nc2cccc([C@@]3(C4CC4)N=C(N)CO[C@@]3(F)C(F)(F)F)c2)cn1 [Compound 203]
7.84	25.1 nM	7.83				COc1cnc(C(=O)Nc2cccc(C3(C)N=C(N)COC3(F)C(F)(F)F)c2)cn1 (single isomer, unassigned) [Compound 177]
8.02	53.7 nM	8.01				NC1=NC(c2cccc(NC(=O)c3ccc(Cl)cn3)c2)(C2CC2)COC1 (single isomer, unassigned) [Compound 195]
	316 nM			102 nM	120 nM	C[C@]1(c2cccc(NC(=O)c3ncc(C#N)cc3Cl)c2)N=C(N)CO[C@@]1(F)C(F)(F)F [Compound 246]
<5	> 30200 nM	<5				COc1cncc(-c2cccc(C3(C)N=C(N)COC3(F)C(F)(F)F)c2)c1 (single isomer, unassigned) [Compound 141]
	33.1 nM			7.41 nM	7.76 nM	NC1=N[C@@](c2cccc(NC(=O)c3ncc(Cl)cc3F)c2)(C2CC2)[C@H](C(F)(F)F)OC1 [Compound 288]
	479 nM			537 nM	537 nM	COc1cnc(C(=O)Nc2cccc([C@@]3(C4CC4)N=C(N)CO[C@]3(F)C(F)(F)F)c2)cn1 [Compound 202]
	> 30200 nM			> 10000 nM	> 10000 nM	N#Cc1cncc(-c2ccc(F)c([C@@]3(C4CC4)N=C(N)CO[C@@]3(F)C(F)(F)F)c2)c1 [Compound 271]
